pIC50: −log10 of the molar value.
Biological target: T1, recombinant human Flag-tagged PARP7 (amino acids 456-657) (Homo sapiens, UniProt Q7Z3E1)
T1 construct: recombinant human Flag-tagged PARP7 (amino acids 456-657)
T1 sequence (Q7Z3E1 456-657): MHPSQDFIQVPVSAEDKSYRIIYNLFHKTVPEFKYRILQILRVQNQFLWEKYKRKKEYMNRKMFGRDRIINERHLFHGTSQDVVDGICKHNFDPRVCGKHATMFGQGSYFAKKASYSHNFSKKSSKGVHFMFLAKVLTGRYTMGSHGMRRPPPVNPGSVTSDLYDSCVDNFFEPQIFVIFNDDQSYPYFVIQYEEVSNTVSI
Experiment: PARP7 biochemical DELFIA assay (auto-MARylation)
Settings: DELFIA readout, IC50 class
In short: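 Flag-PARP7 (456-657), 12.5-37.5 nM stock, captured on anti-FLAG wells, preincubated 30 min with compound, then auto-MARylated with biotin-NAD+ (15 μM stock) in HEPES pH 7.5/NaCl/DTT/BSA/Tween for 2-3 h at room temperature. NAD+ quench; Eu-streptavidin DELFIA read, Ex337/Em620 nm.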

Row | pIC50 | SMILES
1 | ≥ 7.00 | O=C1NCNc2c(CCOCCC(=O)N3CCN(c4ncc(C(F)(F)F)cn4)CC3)cccc21 [Compound 48]
2 | 6.00 to 7.00 | CNCc1cc2c(=O)[nH]ncc2n1CCOCCC(=O)N1CCN(c2ncc(C(F)(F)F)cn2)CC1 [Compound 49]
3 | ≥ 7.00 | O=C(CCOCCn1ncc2c(=O)[nH]ncc21)N1CCN(c2ncc(C(F)(F)F)cn2)CC1 [Compound 50, 1-(2-(3-oxo-3-(4-(5-(trifluoromethyl)pyrimidin-2-yl)piperazin-1-yl)propoxy)ethyl)-1,5-dihydro-4H-pyrazolo[3,4-d]pyridazin-4-one]
4 | 6.00 to 7.00 | O=C(CCOCCn1cnc2c(=O)[nH]ncc21)N1CCN(c2ncc(C(F)(F)F)cn2)CC1 [Compound 51]
5 | 6.00 to 7.00 | O=C(CCOCCc1cccc2c(=O)[nH]nnc12)N1CCN(c2ncc(C(F)(F)F)cn2)CC1 [Compound 52]
6 | 6.00 to 7.00 | O=C(CCOCCn1ccc2c(=O)[nH]cnc21)N1CCN(c2ncc(C(F)(F)F)cn2)CC1 [Compound 53]
7 | 6.00 to 7.00 | O=C1NCc2c(CCOCCC(=O)N3CCN(c4ncc(C(F)(F)F)cn4)CC3)cccc21 [Compound 54]
8 | ≥ 7.00 | CN1CCN(CCOCCC(=O)N2CCN(c3ncc(C(F)(F)F)cn3)CC2)c2cn[nH]c(=O)c21 [Compound 55]
9 | 5.00 to 6.00 | O=C1NCCc2c1ccn2CCOCCC(=O)N1CCN(c2ncc(C(F)(F)F)cn2)CC1 [Compound 56]
10 | ≥ 7.00 | N#Cc1ccc(N2CCN(C(=O)c3cccc(Cc4cc(Cl)cc5c(=O)[nH]ncc45)c3)CC2)nc1 [Compound 57]
11 | 6.00 to 7.00 | O=C(NCCOc1cccc2c(=O)[nH]ncc12)N1CCN(c2ncc(C(F)(F)F)cn2)CC1 [Compound 58]
12 | 6.00 to 7.00 | CCc1cc2c(=O)[nH]ncc2n1CCOCCC(=O)N1CCN(c2ncc(C(F)(F)F)cn2)CC1 [Compound 59]
13 | ≥ 7.00 | O=C(CCOCCn1c(C(F)(F)F)cc2c(=O)[nH]ncc21)N1CCN(c2ncc(C(F)(F)F)cn2)CC1 [Compound 60, 1-(2-(3-oxo-3-(4-(5-(trifluoromethyl)pyrimidin-2-yl)piperazin-1-yl)propoxy)ethyl)-2-(trifluoromethyl)-1,5-dihydro-4H-pyrrolo[2,3-d]pyridazin-4-one]
14 | 6.00 to 7.00 | O=C(CCNCCN1CCCc2c1cn[nH]c2=O)N1CCN(c2ncc(C(F)(F)F)cn2)CC1 [Compound 61]
15 | 6.00 to 7.00 | CC(COCCC(=O)N1CCN(c2ccc(C#N)cn2)CC1)N1CCCc2c1cn[nH]c2=O (stereo not drawn) [Compound 62]
16 | ≥ 7.00 | CC(COCCC(=O)N1CCN(c2ncc(C(F)(F)F)cn2)CC1)N1CCCc2c1cn[nH]c2=O (stereo not drawn) [Compound 63]
17 | 6.00 to 7.00 | N#Cc1ccc(N2CCN(C(=O)c3cccc(Cc4cccc5c4C(=O)NC5=O)c3)CC2)nc1 [Compound 66]
18 | ≥ 7.00 | N#Cc1ccc(N2CCN(C(=O)CCOCCc3cccc4c(=O)[nH]ncc34)CC2)nc1 [Compound 67]
19 | 6.00 to 7.00 | N#Cc1ccc(N2CCN(C(=O)CCOCCc3cc(C(F)(F)F)cc4c(=O)[nH]ncc34)CC2)nc1 [Compound 68]
20 | 6.00 to 7.00 | O=C(CCOCCc1cc(C(F)(F)F)cc2c(=O)[nH]ncc12)N1CCN(c2ncc(C(F)(F)F)cn2)CC1 [Compound 69]
21 | 5.00 to 6.00 | CC(COCCC(=O)N1CCN(c2ccc(C#N)cn2)CC1)c1cccc2c(=O)[nH]ncc12 (stereo not drawn) [Compound 70]
22 | ≥ 7.00 | Cc1cn(CCOCCC(=O)N2CCN(c3ncc(C(F)(F)F)cn3)CC2)c2cn[nH]c(=O)c12 [Compound 74, 3-methyl-1-(2-(3-oxo-3-(4-(5-(trifluoromethyl)pyrimidin-2-yl)piperazin-1-yl)propoxy)ethyl)-1,5-dihydro-4H-pyrrolo[2,3-d]pyridazin-4-one]
23 | ≥ 7.00 | CC(COCCC(=O)N1CCN(c2ncc(C(F)(F)F)cn2)CC1)n1ccc2c(=O)[nH]ncc21 (stereo not drawn) [Compound 75]
24 | 6.00 to 7.00 | CC(COCCC(=O)N1CCN(c2ncc(C(F)(F)F)cn2)CC1)n1ccc2c(=O)[nH]ncc21 (stereo not drawn) [Compound 76]

Row | pIC50 | SMILES
25 | ≥ 7.00 | Cc1cc2c(=O)[nH]ncc2n1CCOCCC(=O)N1CCN(c2ncc(C(F)(F)F)cn2)CC1 [Compound 77]
26 | 6.00 to 7.00 | N#Cc1ccc(N2CCN(C(=O)CCOCCn3c(C(F)(F)F)cc4c(=O)[nH]ncc43)CC2)nc1 [Compound 78]
27 | ≥ 7.00 | N#Cc1ccc(N2CCN(C(=O)CCOCCc3cc(Cl)cc4c(=O)[nH]ncc34)CC2)nc1 [Compound 79]
28 | ≥ 7.00 | O=C(CCOCCc1cc(Cl)cc2c(=O)[nH]ncc12)N1CCN(c2ncc(C(F)(F)F)cn2)CC1 [Compound 80, 7-chloro-5-(2-(3-oxo-3-(4-(5-(trifluoromethyl)pyrimidin-2-yl)piperazin-1-yl)propoxy)ethyl)phthalazin-1(2H)-one]
29 | ≥ 7.00 | N#Cc1ccc(N2CCN(C(=O)CCOCCc3cc(F)cc4c(=O)[nH]ncc34)CC2)nc1 [Compound 81]
30 | ≥ 7.00 | O=C(CCOCCc1cc(F)cc2c(=O)[nH]ncc12)N1CCN(c2ncc(C(F)(F)F)cn2)CC1 [Compound 82]
31 | ≥ 7.00 | CC1CN(c2ccc(C#N)cn2)CCN1C(=O)CCOCCc1cccc2c(=O)[nH]ncc12 (stereo not drawn) [Compound 85]
32 | ≥ 7.00 | CC1CN(c2ncc(C(F)(F)F)cn2)CCN1C(=O)CCOCCc1cccc2c(=O)[nH]ncc12 (stereo not drawn) [Compound 87]
33 | ≥ 7.00 | CC1CN(c2ncc(C(F)(F)F)cn2)CCN1C(=O)CCOCCc1cccc2c(=O)[nH]ncc12 (stereo not drawn) [Compound 88]
34 | ≥ 7.00 | CC1CN(C(=O)CCOCCc2cccc3c(=O)[nH]ncc23)CCN1c1ncc(C(F)(F)F)cn1 (stereo not drawn) [Compound 89]
35 | ≥ 7.00 | CC1CN(C(=O)CCOCCc2cccc3c(=O)[nH]ncc23)CCN1c1ncc(C(F)(F)F)cn1 (stereo not drawn) [Compound 90]
36 | ≥ 7.00 | CC1CN(C(=O)CCOCCc2cccc3c(=O)[nH]ncc23)CCN1c1ccc(C#N)cn1 (stereo not drawn) [Compound 91]
37 | 6.00 to 7.00 | N#Cc1ccc(N2CCN(C(=O)CCOCCn3ncc4c(=O)[nH]ncc43)CC2)nc1 [Compound 92]
38 | 5.00 to 6.00 | N#Cc1ccc(N2CCN(C(=O)c3cccc(OCc4cccc5c(=O)[nH]ncc45)c3)CC2)nc1 [Compound 93]
39 | 5.00 to 6.00 | O=C(c1cccc(OCc2cccc3c(=O)[nH]ncc23)c1)N1CCN(c2ncc(C(F)(F)F)cn2)CC1 [Compound 94]
40 | 6.00 to 7.00 | O=C(CCOCCc1cccc2c(=O)[nH]ncc12)N1CCN(c2ccc(F)cn2)CC1 [Compound 95]
41 | ≥ 7.00 | O=C(CCOCCc1cccc2c(=O)[nH]ncc12)N1CCN(c2ccc(Cl)cn2)CC1 [Compound 96]
42 | ≥ 7.00 | O=C(CCOCCc1cccc2c(=O)[nH]ncc12)N1CCN(c2ccc(C(F)F)cn2)CC1 [Compound 97]
43 | ≥ 7.00 | O=C(CCOCCc1cccc2c(=O)[nH]ncc12)N1CCN(c2ccc(C(F)(F)F)cn2)CC1 [Compound 98, 5-(2-(3-oxo-3-(4-(5-(trifluoromethyl)pyridin-2-yl)piperazin-1-yl)propoxy)ethyl)phthalazin-1(2H)-one]
44 | ≥ 7.00 | O=C(CCOCCc1cccc2c(=O)[nH]ncc12)N1CCN(c2ncc(F)cn2)CC1 [Compound 99]
45 | ≥ 7.00 | O=C(CCOCCc1cccc2c(=O)[nH]ncc12)N1CCN(c2ncc(Cl)cn2)CC1 [Compound 100]
46 | ≥ 7.00 | O=C(CCOCCc1cccc2c(=O)[nH]ncc12)N1CCN(c2ncc(C(F)F)cn2)CC1 [Compound 101]
47 | ≥ 7.00 | N#Cc1cnc(N2CCN(C(=O)CCOCCc3cccc4c(=O)[nH]ncc34)CC2)nc1 [Compound 102]
48 | 6.00 to 7.00 | O=C(CCOCCc1cccc2c(=O)[nH]ncc12)N1CCN(c2ccccn2)CC1 [Compound 103]
